Reference: publication PMC9847679, “The anti-breast cancer stem cell properties of gold(I)-non-steroidal anti-inflammatory drug complexes” (Chemical Science, 2022)

Legend:
MDA-MB-468 cells = assay: Monolayer cytotoxicity (MTT assay), MDA-MB-468 cells; format: cell-based, human; conditions: 72 h incubation
Source text: (§1) Cell Lines and Cell Culture Conditions. The human mammary epithelial HMLER and HMLER-shEcad cell lines were kindly donated by Prof. R. A. Weinberg (Whitehead Institute, MIT). The human epithelial breast MCF10A, breast adenocarcinoma MDA-MB-231 and MDA-MB-468, murine epithelial breast 4T1, and embryonic kidney HEK 293 cell lines were acquired from American Type Culture Collection (ATCC, Manassas, VA, USA).
(§2) HMLER, HMLER-shEcad, and MCF10A cells were maintained in Mammary Epithelial Cell Growth Medium (MEGM) with supplements and growth factors (BPE, hydrocortisone, hEGF, insulin, and gentamicin/amphotericin-B). MDA-MB-231, MDA-MB-468, 4T1, and HEK 293 cells were maintained in Dulbecco's Modified Eagle's Medium (DMEM) supplemented with fetal bovine serum (10 %) and penicillin/streptomycin (1 %). The cells were grown at 310 K in a humidified atmosphere containing 5% CO2.
(§3) Monolayer Cytotoxicity Studies. Exponentially growing cells were seeded at a density of approximately 5 × 10^3 cells per well in 96-well flat-bottomed microplates and allowed to attach for 24 h prior to addition of compounds. Various concentrations of the test compounds (0.0004-100 μM) were added and incubated for 72 h at 37 °C (total volume 200 μl). Stock solutions of the compounds were prepared as 10 mM DMSO solutions and diluted using cell […]
(§4) media. The final concentration of DMSO in each well was ≤1 %. After 72 h, 20 μl of MTT (4 mg mL-1 in PBS) was added to each well and the plates incubated for an additional 4 h at 37 °C. The media/MTT mixture was eliminated and DMSO (100 μl per well) was added to dissolve the formazan precipitates. The optical density was measured at 550 nm using a 96-well multiscanner autoreader. Absorbance values were normalised to (DMSO-containing) control wells and plotted as concentration of test compound versus % cell viability. IC50 values were interpolated from the resulting dose dependent curves. The reported IC50 values are the average of three independent experiments (n = 18). […]
Cellular Uptake. […]

4T1 cells = assay: Monolayer cytotoxicity (MTT assay), 4T1 cells; format: cell-based, murine; conditions: 72 h incubation
Source text: as §1, §2, §3
media. The final concentration of DMSO in each well was ≤1 %. […] The optical density was measured at 550 nm using a 96-well multiscanner autoreader. Absorbance values were normalised to (DMSO-containing) control wells and plotted as concentration of test compound versus % cell viability. […]
h, the fluorescence of the solutions was read at 590 nm (λex = 560 nm). […]
Cellular Uptake. […] The number of cells was counted at this stage, using a haemocytometer. […] All samples were diluted 17-fold with water and analysed using inductively coupled plasma mass spectrometry (ICP-MS, Thermo Scientific ICAP-Qc quadrupole ICP mass spectrometer). Gold levels are expressed as mass of Au (ng) per million cells. […]

COX-2 = COX-2 expression assay (flow cytometry); format: cell-based, human; conditions: LPS 2.5 μM 24 h pre-treatment; 1 at IC50 value or indomethacin 20 μM, 48 h
Description: COX-2 Expression Assay. HMLER-shEcad cells were seeded in 6-well plates (at a density […]
indomethacin (20 μM) and incubated for a further 48 h. The cells were then harvested by trypsinisation, fixed with 4% paraformaldehyde (at 37 °C for 10 min), permeabilised with ice-cold methanol (for 30 min), and suspended in PBS (200 μL). […]
labelled anti-COX-2 antibody (5 μL) was then added to the cell suspension and incubated in the dark for 1 h. The cells were then washed with PBS (1 mL) and analysed using a FACSCanto II flow cytometer (BD Biosciences) (10,000 events per sample were acquired) at the University of Leicester FACS Facility. The FL1 channel was used to assess COX-2 expression. Cell populations were analysed using the FlowJo software (Tree Star).
COX-2 Inhibition Enzyme Immunoassay (EIA). […]
(ovine) Inhibitor Screening Assay (Cayman Chemicals).” The assay was performed according to the manuf acturer’s instructions using a 96-well plate set up.

[1] = Water-octanol partition coefficient (shake-flask, UV-vis); format: physicochemical; conditions: room temperature 24 h
Description: Measurement of water-octanol partition coefficient (LogP). The LogP values for 1-8 were determined using the shake-flask method and UV-vis spectroscopy. The 1-octanol used in this experiment was pre-saturated with water. An aqueous solution of 1-8 (500 μL, 100 μM) was incubated with 1-octanol (500 μL) in a 1.5 mL tube. The tube was shaken at room temperature for 24 h. The two phases were separated by centrifugation and the 1-8 content in each phase was determined by UV-vis spectroscopy. […]

HMLER cells = assay: Monolayer cytotoxicity (MTT assay), HMLER cells; format: cell-based, human; conditions: 72 h incubation, MTT
Source text: as §1, §2, §3, §4
After incubation for 16 […]
h, the fluorescence of the solutions was read at 590 nm (λex = 560 nm). Viable mammospheres reduce the amount of the oxidised TOX8 form (blue) and concurrently increase the amount of the fluorescent TOX8 intermediate (red), indicating the degree of mammosphere cytotoxicity caused by the test compound. […]
Cellular Uptake. To measure the cellular uptake of 1-3 about 1 million HMLER-shEcad cells were treated with 1-3 (0.25 μM) at 37 °C for 24 h. After incubation, the media was removed, the cells were washed with PBS (2 mL × 3) and harvested. The number of cells was counted at this stage, using a haemocytometer. This mitigates any cell death induced by 1-3 at the administered concentration and experimental cell loss. The cellular pellets were dissolved in 65% HNO3 (250 µL) overnight. A cellular pellet of HMLER-shEcad cells treated with 1 was also used to determine the gold content in the nuclear, cytoplasmic and membrane fractions. The Thermo Scientific NE-PER Nuclear and Cytoplasmic Extraction Kit was used to extract and separate the nuclear, cytoplasmic and membrane fractions. The fractions were dissolved in 65% HNO3 (250 µL final volume) overnight. All samples were diluted 17-fold with water and analysed using inductively coupled plasma mass spectrometry (ICP-MS, Thermo Scientific ICAP-Qc quadrupole ICP mass spectrometer). Gold levels are expressed as mass of Au (ng) per million cells. Results are presented as the mean of four determinations for each data point.
Intracellular ROS Assay. […]

HEK 293 cells = assay: Monolayer cytotoxicity (MTT assay), HEK 293 cells; format: cell-based; conditions: 72 h incubation
Source text: as §1, §2
Monolayer Cytotoxicity Studies. Exponentially growing cells were seeded at a density of approximately 5 × 10^3 cells per well in 96-well flat-bottomed microplates and allowed to attach for 24 h prior to addition of compounds. […]
media. […] The optical density was measured at 550 nm using a 96-well multiscanner autoreader. Absorbance values were normalised to (DMSO-containing) control wells and plotted as concentration of test compound versus % cell viability. […]

SMILES: COc1ccc2c(c1)c(CC(=O)[O][Au][PH](c1ccccc1)(c1ccccc1)c1ccccc1)c(C)n2C(=O)c1ccc(Cl)cc1 [complex 1]
- IC50 (MDA-MB-468 cells): 4470 ± 170 nM
- IC50 (4T1 cells): 2240 ± 110 nM
- COX-2 expression (COX-2): decreased
- LogP value [1]: 1.64 ± 0.42
- IC50 (HMLER cells): 190 ± 10 nM
- IC50 (HEK 293 cells): 1920 ± 230 nM
